{"source": "patent US20210052566A1", "about": "“METHODS FOR TREATING HEPATITIS B VIRUS (HBV) INFECTION” (INSERM (INSTITUT NATIONAL DE LA SANTÉ ET DE LA RECHERCHE …, priority 2018, published 2021)", "tested_on": "HDV genotype 1", "assay": "Establishment of HDV infection in dHepaRG (treatment 24 h before and during inoculation)", "assay_type": "cell-based, hepatitis delta virus", "details": "1C8 10 microM, Entry Inh. 100 nM", "experimental": "FIG. 1. Experimental outlines. Treatment schemes: (a) Treatments in pre-infection: dHepaRG cells were treated for 24 h (at day −1) with 100 nM of PreS1 peptide (PreS1-pep) or 10 μM of 1C8, or untreated (NT). At day 0, cells were inoculated with HBV (MOI=250) or with HDV (MOI=25) in the presence of drugs for 24 h. For the tenofovir control (TDF at 10 μM), cells were treated at day 1 and 4 post-infection. Supernatant and cells were harvested at day 7 post-infection. (b) Treatments in post-infection: dHepaRG cells were inoculated with HBV (MOI=250) or with HDV (MOI=25). At days 4, 7 and 9 post infection, cells were treated with TDF 10 μM, lamivudine (3TC) at 10 μM, 1C8 10 μM or untreated (NT). Supernatant and cells were harvested at day 11 postinfection.\nFIG. 7. Effect of 1C8 on de novo establishment of ccDNA in dHepaRG (genotype D). […] B) HBs and HBe secreted antigens in supernatant were quantiUied by ELISA, whereas HBV DNA contained in virions was quantified by qPCR after viral nucleic acid extraction from supernatant. […] Statistics were done by two-tailed Mann-Whitney test, with following signiUicativity: *P<0.05, **P<0.01, ***P<0.001, ****P<0.0001. nd=not determined.", "data": [{"smiles": "Cn1ccc(=O)c(C(=O)Nc2nsc3ccc([N+](=O)[O-])cc23)c1", "note": "[1C8, 4-pyridinonebenzisothiazole carboxamide]", "values": [{"measurement": "block of the establishment of HDV infections", "result": "unable to block"}]}]}
